The values that follow come from US5021236A, “Method of enhancing NMR imaging using chelated paramagnetic ions bound to biomolecules” (Schering Aktiengesellschaft, priority 1981, dated 1991).

Data set [1] can be described thus: NMR detection of a defective blood-brain barrier in the region of a cranial abscess. In kind it is in vivo. The conditions noted are these: NMR diagnosis; complex in the form of salts with good aqueous solubility; preferably 0.1-0.5 mmole/kg. The text has this: In contrast to conventional X-ray diagnosis with radiopaque X-ray contrast media, in NMR diagnosis with paramagnetic contrast medium there is no linear dependence of the signal enhancement on the concentration used. […] For this reason, it was surprising that some pathological processes can be seen only after application of a strongly paramagnetic contrast medium, according to the invention, higher than the doses indicated in EP No. 71564 (which can be from 0.001 mmole/kg to 5 mmole/kg). […] For a dose greater than 0.1 mmole/kg, solutions of high concentrations up to 1 mole/l, preferably 0.25 to 0.75 mole/l, are necessary, since only in this way is the volume load reduced and handling of the injection solution assured.

The next data set is described as follows: aqueous solubility. As to conditions: in water. In kind it is physicochemical.

Regarding `O=C([O-])CN(CCN(CC(=O)[O-])CC(=O)O)CCN(CC(=O)[O-])CC(=O)O.[Gd+3]` [gadolinium diethylenetriaminepentaacetic acid], the “dose at which a defective blood-brain barrier can be detected” value in data set [1] was in the range of 0.05 to 2.5 mmol/kg.
Turning to `O=C([O-])CN(CCN(CC(=O)[O-])CC(=O)NCCCCCCCCCCC(=O)O)CCN(CC(=O)[O-])CC(=O)NCCCCCCCCCCC(=O)O.[Gd+3]` [Gadolinium(III) complex of 13,23-dioxo-15,18,21-tris(carboxymethyl)-12,15,18,21,24-pentaazapentatriacontanedioic acid], the aqueous solubility result in “aqueous solubility” is “insoluble in water”.
Consider `O=C(O)CN(CC(=O)O)C1CCCCC1N(CC(=O)O)CC(=O)O.[Mn]` (stereo not shown) [manganese-1,2-cyclohexenediaminetetraacetic acid], for which the “dose at which a defective blood-brain barrier can be detected” value in data set [1] lay within 0.05 to 2.5 mmol/kg.
Consider `O=C([O-])CCCCCCCCCCNC(=O)CN(CCN(CCN(CC(=O)[O-])CC(=O)NCCCCCCCCCCC(=O)[O-])CC(=O)[O-])CC(=O)[O-].[Gd+3].[Na+].[Na+]` [Example 2, disodium salt of gadolinium(III) complex of 13,23-dioxo-15,18,21-tris(carboxymethyl)-12,15,18,21,24-pentaazapentatriacontanedioic acid], for which the aqueous solubility entry in the data set “aqueous solubility” is “good aqueous solubility”.
